For orientation: pIC50 means the IC50 on a negative log10 scale, so that one unit is a factor of ten.

pIC50: −log10 of the molar value.

For this test, the target named is CDK2/Cyclin E1 (Homo sapiens (Human), UniProt P24941). Nature of the test: CDK2/Cyclin E1 HTRF enzyme activity assay (Example A). Type of test: biochemical. The settings on record: 1 mM ATP. How it is done:
Assays were conducted in white 384-well polystyrene plates in a final reaction volume of 8 μL. […] HTRF signals were read after 1 hour at room temperature on a PHERAstar FS plate reader (BMG Labtech). Data was analyzed with IDBS XLFit and GraphPad Prism 5.0 software using a three or four parameter dose response curve to determine IC50 for each compound.

In the case of `Cc1cc(CN2CCC2)ccc1-n1cc(-c2nc(NC3CCN(S(C)(=O)=O)CC3)ncc2C(F)(F)F)nc1C` [Example 285, 4-(1-(4-(Azetidin-1-ylmethyl)-2-methylphenyl)-2-methyl-1H-imidazol-4-yl)-N-(1-(methylsulfonyl)piperidin-4-yl)-5-(trifluoromethyl)pyrimidin-2-amine], the pIC50 is not below 7.30.

The compound `Cc1nc(-c2nc(N[C@H]3CCN(S(C)(=O)=O)C[C@H]3F)ncc2C(F)(F)F)cn1-c1ccc(CN(C)C)cc1F` [Example 286, 4-(1-(4-((Dimethylamino)methyl)-2-fluorophenyl)-2-methyl-1H-imidazol-4-yl)-N-((3R,4S)-3-fluoro-1-(methylsulfonyl)piperidin-4-yl)-5-(trifluoromethyl)pyrimidin-2-amine] showed a pIC50 not below 7.30.

The compound `CNCc1ccc(-n2cc(-c3nc(N[C@H]4CCN(S(C)(=O)=O)C[C@H]4F)ncc3C(F)(F)F)nc2C)c(F)c1` [Example 287, N-((3R,4S)-3-Fluoro-1-(methylsulfonyl)piperidin-4-yl)-4-(1-(2-fluoro-4-((methylamino)methyl)phenyl)-2-methyl-1H-imidazol-4-yl)-5-(trifluoromethyl)pyrimidin-2-amine] showed a pIC50 not below 7.30. On to `Cc1nc(-c2nc(NC3CCN(S(C)(=O)=O)CC3)ncc2C#N)cn1-c1ccc(CN(C)C)cc1Cl` [Example 288, 4-(1-(2-Chloro-4-((dimethylamino)methyl)phenyl)-2-methyl-1H-imidazol-4-yl)-2-((1-(methylsulfonyl)piperidin-4-yl)amino)pyrimidine-5-carbonitrile], for which the pIC50 was not below 7.30. As for `CNCc1ccc(-n2cc(-c3nc(NC4CCN(S(C)(=O)=O)CC4)ncc3C#N)nc2C)c(Cl)c1` [Example 289, 4-(1-(2-Chloro-4-((methylamino)methyl)phenyl)-2-methyl-1H-imidazol-4-yl)-2-((1-(methylsulfonyl)piperidin-4-yl)amino)pyrimidine-5-carbonitrile], the figure is not below 7.30. Then `Cc1nc(-c2nc(NC3CCN(S(C)(=O)=O)CC3)ncc2C#N)cn1-c1ccc(C#N)cc1F` [Example 290, 4-(1-(4-Cyano-2-fluorophenyl)-2-methyl-1H-imidazol-4-yl)-2-((1-(methylsulfonyl)piperidin-4-yl)amino)pyrimidine-5-carbonitrile], with not below 7.30; and `COc1nccc(-n2cnc(-c3nc(NC4CCN(S(C)(=O)=O)CC4)ncc3C(F)(F)F)c2)c1C#N` [Example 291, 2-Methoxy-4-(4-(2-((1-(methylsulfonyl)piperidin-4-yl)amino)-5-(trifluoromethyl)pyrimidin-4-yl)-1H-imidazol-1-yl)nicotinonitrile], with not below 7.30; and `Cc1c(-n2cnc(-c3nc(NC4CCN(S(C)(=O)=O)CC4)ncc3C(F)(F)F)c2)ccnc1C#N` [Example 292, 3-Methyl-4-(4-(2-((1-(methylsulfonyl)piperidin-4-yl)amino)-5-(trifluoromethyl)pyrimidin-4-yl)-1H-imidazol-1-yl)picolinonitrile], with not below 7.30. Then `Cc1nccc(-n2cnc(-c3nc(NC4CCN(S(C)(=O)=O)CC4)ncc3C(F)(F)F)c2)c1C#N` [Example 293, 2-Methyl-4-(4-(2-((1-(methylsulfonyl)piperidin-4-yl)amino)-5-(trifluoromethyl)pyrimidin-4-yl)-1H-imidazol-1-yl)nicotinonitrile], with not below 7.30; and `CS(=O)(=O)N1CCC(Nc2ncc(C(F)(F)F)c(-c3cn(-c4c(F)cccc4C#N)cn3)n2)CC1` [Example 294, 3-Fluoro-2-(4-(2-((1-(methylsulfonyl)piperidin-4-yl)amino)-5-(trifluoromethyl)pyrimidin-4-yl)-1H-imidazol-1-yl)benzonitrile], with not below 7.30; and `COc1nccc(-n2cnc(-c3nc(NC4CCN(S(C)(=O)=O)CC4)ncc3C(F)(F)F)c2)c1Cl` [Example 295, 4-(1-(3-Chloro-2-methoxypyridin-4-yl)-1H-imidazol-4-yl)-N-(1-(methylsulfonyl)piperidin-4-yl)-5-(trifluoromethyl)pyrimidin-2-amine], with not below 7.30. Regarding `Cc1nccc(-n2cnc(-c3nc(NC4CCN(S(C)(=O)=O)CC4)ncc3C(F)(F)F)c2)c1Cl` [Example 296, 4-(1-(3-Chloro-2-methylpyridin-4-yl)-1H-imidazol-4-yl)-N-(1-(methylsulfonyl)piperidin-4-yl)-5-(trifluoromethyl)pyrimidin-2-amine], the pIC50 was not below 7.30. As for `COc1nccc(-n2cnc(-c3nc(N[C@H]4CCN(S(C)(=O)=O)C[C@H]4F)ncc3C(F)(F)F)c2)c1C#N` [Example 297, 4-(4-(2-(((3R,4S)-3-Fluoro-1-(methylsulfonyl)piperidin-4-yl)amino)-5-(trifluoromethyl)pyrimidin-4-yl)-1H-imidazol-1-yl)-2-methoxynicotinonitrile], the figure is not below 7.30. As for `Cc1nc(-c2nc(N[C@H]3CCN(S(C)(=O)=O)C[C@H]3F)ncc2C(F)(F)F)cn1-c1ccncc1F` [Example 298, N-((3R,4S)-3-Fluoro-1-(methylsulfonyl)piperidin-4-yl)-4-(1-(3-fluoropyridin-4-yl)-2-methyl-1H-imidazol-4-yl)-5-(trifluoromethyl)pyrimidin-2-amine], the figure is not below 7.30; as for `Cc1nc(-c2nc(N[C@H]3CCN(S(C)(=O)=O)C[C@H]3F)ncc2C(F)(F)F)cn1-c1ccc(C#N)cc1F` [Example 299, 3-Fluoro-4-(4-(2-(((3R,4S)-3-fluoro-1-(methylsulfonyl)piperidin-4-yl)amino)-5-(trifluoromethyl)pyrimidin-4-yl)-2-methyl-1H-imidazol-1-yl)benzonitrile], not below 7.30. Then `COc1nccc(-n2cnc(-c3nc(N[C@H]4CCN(S(C)(=O)=O)C[C@H]4F)ncc3C(F)(F)F)c2)c1Cl` [Example 300, 4-(1-(3-Chloro-2-methoxypyridin-4-yl)-1H-imidazol-4-yl)-N-((3R,4S)-3-fluoro-1-(methylsulfonyl)piperidin-4-yl)-5-(trifluoromethyl)pyrimidin-2-amine], with not below 7.30; and `Cc1nccc(-n2cnc(-c3nc(N[C@H]4CCN(S(C)(=O)=O)C[C@H]4F)ncc3C(F)(F)F)c2)c1Cl` [Example 301, 4-(1-(3-Chloro-2-methylpyridin-4-yl)-1H-imidazol-4-yl)-N-((3R,4S)-3-fluoro-1-(methylsulfonyl)piperidin-4-yl)-5-(trifluoromethyl)pyrimidin-2-amine], with not below 7.30; and `Cc1c(-n2cnc(-c3nc(N[C@H]4CCN(S(C)(=O)=O)C[C@H]4F)ncc3C(F)(F)F)c2)ccnc1C#N` [Example 302, 4-(4-(2-(((3R,4S)-3-Fluoro-1-(methylsulfonyl)piperidin-4-yl)amino)-5-(trifluoromethyl)pyrimidin-4-yl)-1H-imidazol-1-yl)-3-methylpicolinonitrile], with not below 7.30. Compound `Cc1nc(-c2nc(NC3CCN(S(C)(=O)=O)CC3)ncc2C(F)(F)F)cn1-c1ccc(C#N)cc1F` [Example 303, 3-Fluoro-4-(2-methyl-4-(2-((1-(methylsulfonyl)piperidin-4-yl)amino)-5-(trifluoromethyl)pyrimidin-4-yl)-1H-imidazol-1-yl)benzonitrile] gave a negative logarithm of the IC50 (pIC50) not below 7.30. For the compound `Cc1nc(-c2nc(NC3CCN(S(C)(=O)=O)CC3)ncc2C(F)(F)F)cn1-c1cccc(C#N)c1F` [Example 304, 2-Fluoro-3-(2-methyl-4-(2-((1-(methylsulfonyl)piperidin-4-yl)amino)-5-(trifluoromethyl)pyrimidin-4-yl)-1H-imidazol-1-yl)benzonitrile], the pIC50 is not below 7.30. Consider `Cc1nc(-c2nc(N[C@H]3CCN(S(C)(=O)=O)C[C@H]3F)ncc2C(F)(F)F)cn1-c1cccc(C#N)c1F` [Example 305, 2-Fluoro-3-(4-(2-(((3R,4S)-3-fluoro-1-(methylsulfonyl)piperidin-4-yl)amino)-5-(trifluoromethyl)pyrimidin-4-yl)-2-methyl-1H-imidazol-1-yl)benzonitrile], for which the negative logarithm of the IC50 (pIC50) was not below 7.30. In turn, `Cc1c(C#N)cccc1-n1cc(-c2nc(N[C@H]3CCN(S(C)(=O)=O)C[C@H]3F)ncc2C(F)(F)F)nc1C` [Example 306, 3-(4-(2-(((3R,4S)-3-Fluoro-1-(methylsulfonyl)piperidin-4-yl)amino)-5-(trifluoromethyl)pyrimidin-4-yl)-2-methyl-1H-imidazol-1-yl)-2-methylbenzonitrile] gave a pIC50 not below 7.30. Then `CS(=O)(=O)N1CCC(Nc2ncc(C(F)(F)F)c(-c3cn(-c4ccnc(C#N)c4Cl)cn3)n2)CC1` [Example 307, 3-Chloro-4-(4-(2-((1-(methylsulfonyl)piperidin-4-yl)amino)-5-(trifluoromethyl)pyrimidin-4-yl)-1H-imidazol-1-yl)picolinonitrile], with not below 7.30. Turning to `CS(=O)(=O)N1CC[C@H](Nc2ncc(C(F)(F)F)c(-c3cn(-c4ccnc(C#N)c4Cl)cn3)n2)[C@H](F)C1` [Example 308, 3-Chloro-4-(4-(2-(((3R,4S)-3-fluoro-1-(methylsulfonyl)piperidin-4-yl)amino)-5-(trifluoromethyl)pyrimidin-4-yl)-1H-imidazol-1-yl)picolinonitrile], the negative-log IC50 (pIC50) was not below 7.30. As to `Cc1nc(-c2nc(NC3CCN(S(C)(=O)=O)CC3)ncc2C(F)(F)F)cn1-c1ccnc(C#N)c1F` [Example 309, 3-Fluoro-4-(2-methyl-4-(2-((1-(methylsulfonyl)piperidin-4-yl)amino)-5-(trifluoromethyl)pyrimidin-4-yl)-1H-imidazol-1-yl)picolinonitrile], the pIC50 is not below 7.30.

For the compound `Cc1nc(-c2nc(N[C@H]3CCN(S(C)(=O)=O)C[C@H]3F)ncc2C(F)(F)F)cn1-c1ccnc(C#N)c1F` [Example 310, 3-Fluoro-4-(4-(2-(((3R,4S)-3-fluoro-1-(methylsulfonyl)piperidin-4-yl)amino)-5-(trifluoromethyl)pyrimidin-4-yl)-2-methyl-1H-imidazol-1-yl)picolinonitrile], the pIC50 is not below 7.30.

For the origin of these results see US11427567B2, “Imidazolyl pyrimidinylamine compounds as CDK2 inhibitors” (Incyte Corporation, priority 2019, dated 2022).
